# According to the supplement of paper PMC8960247:
# Where a name gives a salt, the structure may show the parent alone. ± gives the standard error.
# Tested on: 621-102 (TSC2-deficient)
# Experiment: relative viability vs DMSO; higher = less cytotoxic
# Settings: 0.0001 µM; serum: 10% FBS; 72 h
# 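Also: immortalized renal angiomyolipoma cells stably carrying empty vector or TSC2, dosed in 384-well plates in DMEM, viability normalized to vehicle-treated wells within each plate.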
row,SMILES,relative viability [%]
1,CC1(C)CCC(c2ccc(Cl)cc2)=C(CN2CCN(c3ccc(C(=O)NS(=O)(=O)c4ccc(N[C@H](CCN5CCOCC5)CSc5ccccc5)c(S(=O)(=O)C(F)(F)F)c4)cc3)CC2)C1 [ABT-263 (Navitoclax)],114 ± 3.6
2,COc1ccc(S(=O)(=O)Nc2cccnc2Nc2ccc(O)cc2)cc1 [ABT-751],112 ± 3.7
3,Cc1ccc(F)c(NC(=O)Nc2ccc(-c3cccc4[nH]nc(N)c34)cc2)c1 [ABT-869],106 ± 3
4,C[C@]1(c2nc3c(C(N)=O)cccc3[nH]2)CCCN1 [ABT-888],129 ± 4.1
5,CC(C)(C)c1cc(NC(=O)Nc2ccc(-c3cn4c(n3)sc3cc(OCCN5CCOCC5)ccc34)cc2)no1 [AC-220],81.8 ± 3.2
6,N#C/C(=C\c1ccc(O)c(O)c1)C(=O)NCc1ccccc1 [AG-490],99.7 ± 2.8
7,Cc1csc(-c2nnc(Nc3ccc(Oc4ncccc4-c4ccnc(N)n4)cc3)c3ccccc23)c1 [AMG900],84.8 ± 2
8,CC(C)[C@H](C(=O)Nc1ccc(C(=O)NO)cc1)c1ccccc1 [AR-42 (HDAC-42)],94.68 ± 0.44
9,Clc1ccc(C2(c3ccc(-c4cn[nH]c4)cc3)CCNCC2)cc1 [AT7867],98.8 ± 5.5
10,COc1cc2nccc(Oc3ccc(NC(=O)Nc4cc(C)on4)c(Cl)c3)c2cc1OC [AV-951(Tivozanib)],102 ± 2
11,Cc1cc(Nc2nc(N[C@@H](C)c3ccc(F)cc3)c(C#N)cc2F)n[nH]1 [AZ 960],99.6 ± 4
12,CCN(CCO)CCCOc1ccc2c(Nc3cc(CC(=O)Nc4cccc(F)c4)[nH]n3)ncnc2c1 [AZD1152-HQPA (Barasertib)],114 ± 6.7
13,Cc1cc(Nc2nc(N[C@@H](C)c3ncc(F)cn3)ncc2Cl)[nH]n1 [AZD1480],104 ± 2.1
14,O=C(c1cc(Cc2n[nH]c(=O)c3ccccc23)ccc1F)N1CCN(C(=O)C2CC2)CC1 [AZD2281 (Olaparib)],120 ± 2.1
15,Cc1ncc(-c2ccnc(Nc3ccc(S(C)(=O)=O)cc3)n2)n1C(C)C [AZD5438],103 ± 7.6
16,Cn1cnc2c(F)c(Nc3ccc(Br)cc3Cl)c(C(=O)NOCCO)cc21 [AZD6244 (Selumetinib)],84 ± 9.2
17,COc1ccc(-c2ccc3c(N4CCOC[C@@H]4C)nc(N4CCOC[C@@H]4C)nc3n2)cc1CO [AZD8055],80 ± 3.1
18,Cc1cc(C(=O)NOCCO)c(Nc2ccc(I)cc2F)n(C)c1=O [AZD8330],103 ± 1.4
19,CNC(=O)CN1CCC(Oc2cc3c(Nc4cccc(Cl)c4F)ncnc3cc2OC)CC1 [AZD8931],106 ± 2.5
20,CC(=O)O[C@H]1CC[C@@]2(C)C(=CC[C@@H]3[C@@H]2CC[C@]2(C)C(c4cccnc4)=CC[C@@H]32)C1 [Abiraterone Acetate (CB7630)],103 ± 1.5

row,SMILES,relative viability [%]
1,CC(=O)Nc1ccccc1 [Acetanilide],87.9 ± 1.9
2,Nc1[nH]cnc2ncnc1-2 [Adenine HCl],93.9 ± 2
3,Nc1[nH]cnc2ncnc1-2 [Adenine],98 ± 4
4,COc1cccc2c1C(=O)c1c(O)c3c(c(O)c1C2=O)C[C@@](O)(C(=O)CO)C[C@@H]3O[C@H]1C[C@H](N)[C@H](O)[C@H](C)O1 [Adriamycin],102 ± 2
5,NCCCC(O)(P(=O)(O)O)P(=O)(O)O [Alendronate Sodium],99.4 ± 1.2
6,COCCCOc1cc(C[C@@H](C[C@H](N)[C@@H](O)C[C@H](C(=O)NCC(C)(C)C(N)=O)C(C)C)C(C)C)ccc1OC [Aliskiren hemifumarate],110 ± 2.6
7,O=C1c2ccccc2C(=O)c2c1ccc(O)c2O [Alizarin],108 ± 2.3
8,Oc1ncnc2[nH]ncc12 [Allopurinol],96.2 ± 0.32
9,NC12CC3CC(CC(C3)C1)C2 [Amantadine HCl (Symmetrel)],97.2 ± 2.8
10,CC(NC(C)(C)C)C(=O)c1cccc(Cl)c1 (stereo not drawn) [Amfebutamone],110 ± 2.9
11,CCN1CCCC1CNC(=O)c1cc(S(=O)(=O)CC)c(N)cc1OC (stereo not drawn) [Amisulpride],111 ± 3.8
12,CCOC(=O)C1=C(COCCN)NC(C)=C(C(=O)OC)C1c1ccccc1Cl (stereo not drawn) [Amlodipine besylate],65.2 ± 8.7
13,CC(C)(C#N)c1cc(Cn2cncn2)cc(C(C)(C)C#N)c1 [Anastrozole (Arimidex)],125 ± 1.8
14,N#CC1(c2ccc(NC(=O)c3cccnc3NCc3ccncc3)cc2)CCCC1 [Apatinib],101 ± 3.1
15,O=c1cc(-c2ccc(O)cc2)oc2cc(O)cc(O)c12 [Apigenin],90.7 ± 0.81
16,COc1ccc(-n2nc(C(N)=O)c3c2C(=O)N(c2ccc(N4CCCCC4=O)cc2)CC3)cc1 [Apixaban],107.9 ± 0.95
17,COc1cc(OC)c(OC)cc1C=O [Asaraldehyde],112 ± 3.5
18,CN1CC2c3ccccc3Oc3ccc(Cl)cc3C2C1 (stereo not drawn) [Asenapine maleate],110 ± 1.5
19,CN1[C@@H]2CC[C@H]1C[C@@H](OC(=O)C(CO)c1ccccc1)C2 (stereo partly drawn) [Atropine sulfate monohydrate],64.6 ± 5.9

# Same assay, conditions: 0.001 µM; serum: 10% FBS; 72 h
row,SMILES,relative viability [%]
1,CC1(C)CCC(c2ccc(Cl)cc2)=C(CN2CCN(c3ccc(C(=O)NS(=O)(=O)c4ccc(N[C@H](CCN5CCOCC5)CSc5ccccc5)c(S(=O)(=O)C(F)(F)F)c4)cc3)CC2)C1 [ABT-263 (Navitoclax)],123 ± 7.2
2,COc1ccc(S(=O)(=O)Nc2cccnc2Nc2ccc(O)cc2)cc1 [ABT-751],114 ± 3.9
3,Cc1ccc(F)c(NC(=O)Nc2ccc(-c3cccc4[nH]nc(N)c34)cc2)c1 [ABT-869],100.3 ± 0.6
4,C[C@]1(c2nc3c(C(N)=O)cccc3[nH]2)CCCN1 [ABT-888],118 ± 1.3
5,CC(C)(C)c1cc(NC(=O)Nc2ccc(-c3cn4c(n3)sc3cc(OCCN5CCOCC5)ccc34)cc2)no1 [AC-220],84.77 ± 0.0088
6,N#C/C(=C\c1ccc(O)c(O)c1)C(=O)NCc1ccccc1 [AG-490],98.6 ± 3.6
7,Cc1csc(-c2nnc(Nc3ccc(Oc4ncccc4-c4ccnc(N)n4)cc3)c3ccccc23)c1 [AMG900],74.8 ± 1.5
8,CC(C)[C@H](C(=O)Nc1ccc(C(=O)NO)cc1)c1ccccc1 [AR-42 (HDAC-42)],109 ± 2.2
9,Clc1ccc(C2(c3ccc(-c4cn[nH]c4)cc3)CCNCC2)cc1 [AT7867],102 ± 6.2
10,COc1cc2nccc(Oc3ccc(NC(=O)Nc4cc(C)on4)c(Cl)c3)c2cc1OC [AV-951(Tivozanib)],96.6 ± 3.2
11,Cc1cc(Nc2nc(N[C@@H](C)c3ccc(F)cc3)c(C#N)cc2F)n[nH]1 [AZ 960],107 ± 3.6
12,CCN(CCO)CCCOc1ccc2c(Nc3cc(CC(=O)Nc4cccc(F)c4)[nH]n3)ncnc2c1 [AZD1152-HQPA (Barasertib)],111 ± 1.4
13,Cc1cc(Nc2nc(N[C@@H](C)c3ncc(F)cn3)ncc2Cl)[nH]n1 [AZD1480],101.7 ± 0.92
14,O=C(c1cc(Cc2n[nH]c(=O)c3ccccc23)ccc1F)N1CCN(C(=O)C2CC2)CC1 [AZD2281 (Olaparib)],129 ± 5.5
15,Cc1ncc(-c2ccnc(Nc3ccc(S(C)(=O)=O)cc3)n2)n1C(C)C [AZD5438],101 ± 1.4
16,Cn1cnc2c(F)c(Nc3ccc(Br)cc3Cl)c(C(=O)NOCCO)cc21 [AZD6244 (Selumetinib)],89.89 ± 0.22
17,COc1ccc(-c2ccc3c(N4CCOC[C@@H]4C)nc(N4CCOC[C@@H]4C)nc3n2)cc1CO [AZD8055],86.2 ± 2.7
18,Cc1cc(C(=O)NOCCO)c(Nc2ccc(I)cc2F)n(C)c1=O [AZD8330],102 ± 2.7
19,CNC(=O)CN1CCC(Oc2cc3c(Nc4cccc(Cl)c4F)ncnc3cc2OC)CC1 [AZD8931],104 ± 3
